Assay results taken from US20150258096A1, “METHODS AND COMPOSITIONS FOR TREATMENT OF TH2-MEDIATED AND TH17-MEDIATED DISEASES” (THE REGENTS OF THE UNIVERSITY OF CALIFORNIA, priority 2012, published 2015).

Key:
[1] = tested on: WT CD11c^+ BM cells; test: Co-culture of WT CD11c+ BM cells with OT-2 CD4+ T cells, IL-4 by ELISA (pro-Th2 phenotype); assay type: cell-based, mouse; settings: H-89 10 μM; CE3F4 50 μM or 25 μM (method); 30 min at 37° C.; FIG. 9b
Protocol: Cytokine levels in the supernatant were determined using ELISA kits for IL-4, IL-5, IL-13, IL-10, IFNγ, TNFα and IL-17A (eBioscience, La Jolla, Calif.) following the manufacturers' instructions as published^17.
WT BM-derived CD11c^+ cells were cultured and then incubated with a PKA inhibitor (H-89, 10 μM), with or without pretreatment with pertussis toxin (PTX, 100 μg/ml, 18 h), or with EPAC inhibitor (CE3F4, 25 μM) for 30 min at 37° C., then washed and co-cultured with OT-2 T cells.

[2] = tested on: Wild-type B6 mice; test: Immunization with OVA, alum and cAMP-elevating agent; OVA-specific IL-17 (ELISA); assay type: in vivo, mouse; settings: i.p. twice two weeks apart, OVA 50 μg/mice with alum; colforsin 1 mg/kg, IBMX 5 mg/kg; spleen cells of day 28 incubated 3 days with OVA; FIG. 16
Protocol: FIG. 16 cAMP agents provoke IL-17 responses: Wild-type B6 mice were immunized intraperitoneally (i.p.) twice two weeks apart with OVA (50 μg/mice) with and without alum (20 mg/mice), and colforsin (CF; a cAMP elevating drug that is approved for human use in Japan, 1 mg/kg), IBMX (a PDE inhibitor, 5 mg/kg), or solvent only as a control; on day 28, single-cell suspensions were prepared from the spleens and incubated for 3 days with OVA (200 μg/mL) as we described earlier (16); IL-17 levels were then detected (ELISA); *p<0.05 and **p<0.01 compared with OVA/alum-immunized group, n=4/group.
Based on the data presented above, co-immunization with antigen and a cAMP-elevating agent can induce a Th17 response. To promote stimulation of the same DC with antigen and cAMP agent, both were adsorbed to alum, an adjuvant used in humans (22), and immunized C57BL/6 (B6) mice with the combination.

[3] = tested on: Gnas^ΔCD11c CD11c^+ BM cells; test: Co-culture of Gnas^ΔCD11c CD11c+ BM cells with OT-2 CD4+ T cells, IL-4 by ELISA (pro-Th2 phenotype); assay type: cell-based, mouse
Protocol: For the inhibition of Th2 response by cAMP, fl/fl or Gnas^ΔCD11c BM-derived CD11c^+ cells were cultured as above, then, incubated with 8-CPT-cAMP (50 μM) for 24 h, washed and then co-cultured with OT-2 T cells.

[4] = tested on: WT (B6) and Gnas^ΔCD11c recipient mice; test: Adoptive transfer of OVA-loaded Gnas^ΔCD11c CD11c+ BM cells treated with or without 8-CPT-cAMP; assay type: in vivo, mouse; settings: BM cells treated in vitro with 50 μM 8-CPT-cAMP before i.n. transfer, 2×10^5 cells/recipient
Protocol: FIG. 14: Adoptive transfer of CD11c^+ BM cells from Gnas^ΔCD11c mice induces a Th2 bias in vivo, a response that is inhibited by a cell-permeable cAMP analogue: (a) OVA-specific IL-4 response by OT-2 CD4^+ T cells co-cultured with cell-permeable cAMP (8-CPT-cAMP, 50 μM)-treated CD11c^+ BM cells, (b) Protocol of the adoptive transfer. OVA-loaded Gnas^ΔCD11c CD11c^+ BM cells were incubated in the absence and presence of 50 μM 8-CPT-cAMP (CPT) in vitro prior to i.n. transfer to WT (B6 mice) and Gnas^ΔCD11c recipients (2×10^5 cells/recipient), (c) IL-4 levels of anti-CD3/28 Ab-stimulated CD4^+ T cells (spleen) from WT or Gnas^ΔCD11c recipients (ELISA), (d) Serum levels of IgE and IgG1 from WT and Gnas^ΔCD11c mice that received Gnas^ΔCD11c CD11c^+ BM cells loaded with OVA with/without CPT, (e) Lung histology from WT and Gnas^ΔCD11c recipients (magnification ×100, scale bar: 100 μm) (Data are mean±s.e.m, n=3-4 in each group; * p<0.05, ** p<0.01, p<0.001).
Adoptive transfer of OVA-pulsed Gnas^ΔCD11c CD11c^+ BM cells into mice was performed as described previously^55. […] 1 day after the last OVA challenge, mice were sacrificed and assessed by lung histology, measurement of serum immunoglobulins and cytokine production.

[5] = tested on: CCL2 expression in Gnas^ΔCD11c CD11c^+ BM cells; test: CCL2 mRNA levels (qPCR) in CD11c+ BM cells; assay type: cell-based, mouse; settings: Gnas^ΔCD11c CD11c+ BM cells incubated with 8-CPT-cAMP 50 μM; FIG. 9g
Protocol: Isolation of RNA was carried out using an RNeasy Mini Kit (QIAGEN, Valencia, Calif.) according to the manufacturer's instructions. The cDNA was synthesized using Superscript III First-Strand system (Invitrogen). Quantitative PCR analysis was performed as described previously^54. SYBR Green PCR Master Mix was used for real-time PCR (7300 system, Applied Biosystems). Samples were run in triplicate and normalized by a housekeeping gene (mouse GAPDH).

CC1CCc2c(cc(Br)c(F)c2Br)N1C=O (stereo not drawn) [CE3F4]
pro-Th2 phenotype of WT CD11c+ BM cells (IL-4 levels of co-cultured OT-2 CD4+ T cells) [1]: but not with an EPAC inhibitor (CE3F4), promoted their pro-Th2 phenotype

CC(C)Cn1c(=O)n(C)c(=O)c2[nH]cnc21 [IBMX, 3-isobutyl-1-methylxanthine]
OVA-specific IL-17 response [2]: provoked a robust OVA-specific IL-17 response

O=P1(O)OCC2OC(n3cnc4c(Nc5ccccc5)ncnc43)C(O)C2O1 (stereo not drawn) [N6, Phenyladenosine-3′,5′-cyclic monophosphate]
pro-Th2 phenotype of Gnas^ΔCD11c CD11c+ BM cells (IL-4 levels of co-cultured OT-2 CD4+ T cells) ([3]; BM cells incubated with cAMP analogue 50 μM for 24 h, washed, co-cultured with OT-2 T cells, FIG. 9a): abolished the pro-Th2 phenotype

O=S(=O)(NCCNC/C=C/c1ccc(Br)cc1)c1cccc2cnccc12 [H-89]
pro-Th2 phenotype of WT CD11c+ BM cells (IL-4 levels of co-cultured OT-2 CD4+ T cells) [1]: promoted their pro-Th2 phenotype

Nc1ncnc2c1nc(Sc1ccc(Cl)cc1)n2[C@@H]1O[C@@H]2COP(=O)([O-])O[C@H]2[C@H]1O.[Na+] [CPT, 8-(4-Chlorophenylthio) adenosine 3′,5′-cyclic monophosphate sodium salt]
IL-4 production by OT-2 CD4+ T cells co-cultured with treated Gnas^ΔCD11c BM cells ([3]; 8-CPT-cAMP 50 μM, 24 h, in vitro, FIG. 14a): abolished the subsequent IL-4 production
development of Th2 bias in recipients (IL-4 of splenic CD4+ T cells, serum IgE) ([4]; FIG. 14c-d): inhibited development of Th2 bias
airway inflammation in recipients (lung histology) ([4]; FIG. 14e): inhibited development of Th2 bias and airway inflammation
CCL2 expression (mRNA, qPCR) [5]: decreased CCL2 expression

C=C[C@@]1(C)CC(=O)[C@]2(O)[C@@]3(C)[C@@H](O)CCC(C)(C)[C@@H]3[C@H](O)[C@H](OC(C)=O)[C@@]2(C)O1 [colforsin]
OVA-specific IL-17 response [2]: provoked a robust OVA-specific IL-17 response
